# Laboratory results as given in patent US5955508A, “Method for the enhancement of lymphocyte activity against opportunistic microbial pathogens” (priority 1996, dated 1999).
# Values joined by “and” are separate entries in the source; they are usually repeats but may differ in a detail not shown here. Equal values may be shown once. Read-outs that look alike come from different tables or passages of the source.
# How the values were obtained:
# [1] = whether by intravenous or oral administration; cited from earlier work
# [2] = tested on: IL-2 in CD4+ (CD8-) T cells; assay: IL-2 production by CD4+ (CD8-) T cells, flow cytometry; assay type: cell-based, human; details: for % Positive Cells (IL-2 immunopositive), d-FEN / IL-2 Titer, d-FEN: CD4+ (CD8-) T cells, Mean ± SEM
# Description: (§1) The T lymphocytes analyzed were obtained from 20 HIV+ patients (9 females and 11 males, 25-48 years of age). The patients were diagnosed as being HIV+ within the past 0.5-9 years, and 15 are being treated with antiviral drugs. The subjects' study identification number (indicates the order in which bloods were drawn), CD4+ and CD8+ counts (determined March, 1996, as part of the present study), age, sex, date of diagnosis, and pharmacotherapy are provided in Table 1.
# (§2) The experimental protocol for this project is illustrated in Table A. Note that the cultures were exposed to two doses (5 and 50 ng/ml) of d-FEN in the mitogenesis assays, whereas only one dose (50 ng/ml) was used in the antifungal and cytokine release assays.
# (§3) Cytokine Profiles. Peripheral mononuclear cells were isolated by the Ficoll-Hypaque method and washed twice with RPMI-1640 medium. Cell suspensions were made at 1×10^6 /ml and the cells activated with interleukin-2 (IL-2) for 18 h or 4 days at 37° C. under 5% CO^2 +95% air. Monensin (1 nM) then was added to the culture to block secretion of cytokines, and the cultures allowed to continue for another 3 h. The cells were washed twice with PBS+1% fetal calf serum (FCS) with 0.1% saponin+0.1% sodium azide, then washed once with PBS-1% FCS and stained with anti-cytokine MAb-FL conjugate for 30 min. Following two washes, the cells were analyzed by flow cytometry for production of IL-2, IFN-γ and TNF-α. The MAbs-FL conjugates were obtained from Pharmingen (San Diego, Calif.). Potential effects of on cytokine production were evaluated (a) as increases in the percentage of a T cell subset which produce the respective cytokine; and, (b) as increases in the amount of cytokine produced by each subset. The latter were analyzed as a shift of the cytokine histograms.
# (§4) The data were analyzed by a one- or two-way analysis of variance (ANOVA) with repeated measures where appropriate ([…] version 1; Jandel, San Rafael, Calif.). Significant main effects were subjected to post hoc analysis using the Student-Newman Keuls All Pairwise Multiple Comparisons test or the Mann-Whitney U test.
# Candida albicans = assay: Lymphocyte mediated antifungal activity against Candida albicans (growth inhibition), lymphocytes from HIV+ patients; assay type: cell-based; details: for mean change in antifungal activity: 50 ng/ml d-FEN vs no d-FEN; for Antifungal Units, d-FEN: one line per patient and Mean + SEM
# Description: as §1
# The patients fell into one of three groups (Groups A, B and C) based on their CD4+ cell counts (the number of T helper cells/μL blood): 8 of the HIV+ patients had normal (or above normal) CD4+ levels (normal range 550-1500/μL); 4 had levels between 200-499/μL; and, 7 had CD4+ counts equal to or below 200/μL. This latter group of patients by definition have AIDS (see Table 41-3 from K. J. Ryan (Ed.), Sherris Medical Microbiology, Third Edition, Appleton & Lange:Norwalk, Conn., 1994, p. 547). These patients, moreover, have had recurrent candidiasis and other opportunistic infections which have become increasingly difficult to manage. All of the patients' CD8+ cell (cytotoxic T lymphocytes) counts were within or above normal range (300-1000/μL). We were unable to obtain enough lymphocytes from one patient (#4) to analyze their antifungal activity.
# as §2
# Isolation of Peripheral Blood Mononuclear Cells. Forty ml of venous blood were aseptically drawn into sterile 10 ml tubes containing 20 U/ml preservative free heparin, diluted with an equal volume of Hank's Balanced Salt Solution (HBSS), layered over Lymphocyte Separation Medium (LSM, Bionetics, Kensington, Md.), and centrifuged at 1,000×g for 30 min. After centrifugation, the mononuclear cell layer was recovered from the interface and washed twice in HBSS prior to further manipulation and then enumerated microscopically.
# Lymphocyte Mediated Antifungal Activity Against Candida albicans: Fungal Culture. C. albicans cultures were stored at 25° C. on Sabouraud's dextrose agar (SDA) (Becton Dickinson and Co., Cockeysville, Md.). Cells used for experimentation were cultured overnight at 37° C. on SDA, collected as isolated colonies, and washed once in HBSS. Yeast cultures were enumerated microscopically. C. albicans were inoculated into RPMI 1640 medium. C. albicans hyphal forms were obtained by incubation at 37° C. with 5% CO2 in RPMI 1640. Inoculum of 2×10^5 yeast cells/ml yield approximately 100% hyphal fragments when incubated for 2 h at 37° C.
# Activation of Lymphocytes. Human peripheral blood lymphocytes were placed in culture medium containing 5×10^-5 2-mercaptoethanol (2-ME) at a concentration of 2.0×10^6 cells/ml with d-FEN (50 ng/ml was added on the second day of culture) and 1,500 U/ml IL-2 (Hoffman-La Roche Inc., Nutley, N.J.) in Falcon, Multiwell plates (Becton Dickinson, Lincoln Park, N.J.) for 3 and 4 days. The cells were harvested following incubation at 37° C., overlaid onto LSM and centrifuged at 1,000×g for 20 min. The cells at the interface were washed twice with HBSS prior to assessment of functional activity.
# Measurement of the Inhibition of C. albicans Growth. Fungal cells used for experimentation were collected from isolated, overnight colonies on SDA, and washed once in HBSS. Yeast were resuspended to 2×10^5 /ml in RPMI 1640 and 5×10^3 yeast placed in individual wells of 96 well flat bottom plates (Corning Glass Works, #25861, Corning, N.Y.). […]
# lymphocyte functions = details: Clancy and Lorens, 1996, Mathews et al.; cited from earlier work
# [3] = tested on: TNF-α in CD4+ (CD8-) T cells; assay: TNF-α production by CD4+ (CD8-) T cells, flow cytometry; assay type: cell-based, human; details: for % Positive Cells (TNF-α immunopositive), d-FEN / TNF-α Titer, d-FEN: CD4+ (CD8-) T cells, Mean ± SEM; for inhibition at 0.05 µg/mL: Homo sapiens, T-cell
# Description: as §1, §2, §3, §4
compound,measurement,setting,value
CCN[C@@H](C)Cc1cccc(C(F)(F)F)c1 [d-FEN],protein binding,[1],about 36%
same,"% Positive Cells (IL-2 immunopositive), d-FEN","[2]; 50 ng/ml, AIDS",9 ± 4%
same,"IL-2 Titer, d-FEN","[2]; 50 ng/ml, AIDS",213 ± 33 geometric mean channel fluorescence
same,"% Positive Cells (IL-2 immunopositive), d-FEN","[2]; 50 ng/ml, non-AIDS HIV+",32 ± 3%
same,"IL-2 Titer, d-FEN","[2]; 50 ng/ml, non-AIDS HIV+",308 ± 27 geometric mean channel fluorescence
same,effect on IL-2 levels in words,"[2]; 50 ng/ml, CD4+ T cells, non-AIDS",not in the non-AIDS patients' CD4+ T cells
same,activation at 0.05 µg/mL,"[2]; Homo sapiens, T-cell, read-out: percent increase of IL-2 titer over VEH",55%
same,mean change in antifungal activity,Candida albicans; Group B,-13%
same,mean change in antifungal activity,Candida albicans; Group C (AIDS),+100%
same,patients showing increased antifungal activity,"Candida albicans; 50 ng/ml d-FEN, Group A",7 of the 8
same,"Antifungal Units, d-FEN","Candida albicans; 50 ng/ml d-FEN, Group A (normal CD4+ HIV+ patients)",62 Antifungal Units and 84 Antifungal Units and 82 Antifungal Units and 144 Antifungal Units and 31 Antifungal Units and 60 Antifungal Units and 236 Antifungal Units and 95 ± 23 Antifungal Units
same,antifungal activity response in words,"Candida albicans; 50 ng/ml d-FEN, Group B",mixed response
same,"Antifungal Units, d-FEN","Candida albicans; 50 ng/ml d-FEN, Group B (CD4+ 200-499/μL)",16 Antifungal Units and 164 Antifungal Units and 120 Antifungal Units and 75 Antifungal Units and 94 ± 32 Antifungal Units
same,patients showing increased antifungal activity,"Candida albicans; 50 ng/ml d-FEN, Group C (AIDS)",all 7 of the AIDS patients (Group C) evidenced increased
same,"Antifungal Units, d-FEN","Candida albicans; 50 ng/ml d-FEN, Group C (AIDS)",130 Antifungal Units and 321 Antifungal Units and 164 Antifungal Units and 355 Antifungal Units and 307 Antifungal Units and 314 Antifungal Units and 394 Antifungal Units and 284 ± 37 Antifungal Units
same,antifungal activity of Group C vs other two groups,"Candida albicans; 50 ng/ml d-FEN, one-way ANOVA p<0.001",significantly greater in the presence of d-FEN
same,"immune functions in experimental animal models, in words",lymphocyte functions,"augment T and B lymphocyte functions, to increase cell-mediated cytotoxicity for natural killer cell (NK) tumor targets and to enhance cell-mediated activities for opportunistic microbial pathogens"
same,"% Positive Cells (TNF-α immunopositive), d-FEN","[3]; 50 ng/ml, AIDS",31 ± 4%
same,"TNF-α Titer, d-FEN","[3]; 50 ng/ml, AIDS",156 ± 40 geometric mean channel fluorescence
same,"% Positive Cells (TNF-α immunopositive), d-FEN","[3]; 50 ng/ml, non-AIDS HIV+",69 ± 3%
same,"TNF-α Titer, d-FEN","[3]; 50 ng/ml, non-AIDS HIV+",310 ± 40 geometric mean channel fluorescence
same,effect on TNF-α level in words,"[3]; 50 ng/ml, CD4+ T cells, AIDS",not in the AIDS CD4+ T cells
same,effect on number of TNF-α+ cells in words,"[3]; 50 ng/ml, CD4+ T cells, AIDS",failed to affect
same,inhibition at 0.05 µg/mL,[3]; read-out: percent change of TNF-α titer vs VEH,23%
same,inhibition at 0.05 µg/mL,[3]; read-out: reduction of the level of TNF-α,23%
